Reference: patent publication US5707996A, “Pharmaceutical solution and methods for preparation thereof” (Macleod Pharmaceuticals, Inc., priority 1995, dated 1998)
Where two headings read alike, the source gives them in different places.

Legend:
[1] = cited from earlier work
protozoal enzymes = settings: versus host cells; cited from earlier work

COc1cc(Cc2cnc(N)nc2N)cc(OC)c1OC [Trimethoprim, 5-[(3,4,5-trimethoxyphenyl)methyl]-2,4-pyrimidinediamine]
solubility in 2-pyrrolidone (45° C.): about 2.0 g/10 ml
solubility in 2-pyrrolidone (room temperature): about 0.4 g/10 ml
solubility in NMP (NMP, room temperature): about 1.6 g/10 ml
solubility in water (in words) [1]: not soluble in water
solubility in water ([1]; room temperature): about 0.04 g/100 ml
selectivity for inhibiting folate synthesis in protozoal enzymes (protozoal enzymes): high selectivity

Nc1ccc(S(=O)(=O)Nc2ncccn2)cc1 [sulfadiazine, 4-amino-N-2-pyrimidinylbenzenesulfonamide]
solubility in acidic or basic aqueous medium (acidic or basic aqueous medium, room temperature): at least 2.3 g/10 ml

Nc1ccc(S(=O)(=O)Nc2ncccn2)cc1 [Sodium sulfadiazine]
solubility in water (in words) [1]: soluble in water
